Data reported in patent publication US20090227612A1, “Aminopyrimidine Derivatives Inhibiting Protein Kinase Activity, Method For The Preparation Thereof And Pharmaceutical Composition Containing Same” (priority 2005, published 2009).
Like-named read-outs stand apart in the source and are kept apart here.

Legend:
Aurora A = molecular target: T1, Aurora A (Homo sapiens, UniProt O14965); assay: Aurora A kinase activity assay (Kemptide substrate, Kinase-Glo residual ATP); assay type: biochemical; settings: recombinant Aurora A 10 nM, ATP 1 μM, Kemptide 100 μM, 30° C. 1 hour
T1 construct: purchased Upstate
T1 sequence (O14965 1-403): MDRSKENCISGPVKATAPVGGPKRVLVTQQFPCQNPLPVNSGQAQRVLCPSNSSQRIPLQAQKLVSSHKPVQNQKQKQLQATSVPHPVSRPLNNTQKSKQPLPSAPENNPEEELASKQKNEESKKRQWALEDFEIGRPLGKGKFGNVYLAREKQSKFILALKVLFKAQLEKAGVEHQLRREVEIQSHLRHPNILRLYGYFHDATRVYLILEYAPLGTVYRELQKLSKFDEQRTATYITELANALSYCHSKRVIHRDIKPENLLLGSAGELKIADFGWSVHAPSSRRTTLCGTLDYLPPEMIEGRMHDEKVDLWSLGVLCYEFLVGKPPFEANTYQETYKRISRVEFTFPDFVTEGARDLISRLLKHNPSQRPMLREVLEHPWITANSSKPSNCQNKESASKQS
Experimental: Further, the test compounds and comparative compound were successively diluted with dimethyl sulfoxide (DMSO) from an initial concentration of 12.5 mM to obtain test solutions and DMSO was used as a control solution. Less than 5% of each test solution or control solution was added to a reaction solution containing 20 mM HEPES (pH 7.5), 5 mM MgCl2, 0.5 mM EGTA, 200 mM KCl, 1 mM DTT and 0.05% triton X-100, and 100 μM of Kemptide peptide (PEPTRON), which is a substrate of aurora kinase, 1 μM of ATP and 10 nM of Aurora A (Upstate), which is a recombinant aurora kinase, were added thereto, followed by reacting each mixture at 30° C. for 1 hour. 25 μl of each reacted solution was mixed with 25 μl of Kinase-Glo™ (promega), and reacted at room temperature for 10 minutes, and the amount of residual ATP therein was measured using Fusion a-FP (Packard). Enzymic activity in each reacted solution was analyzed based on the measured value, and IC50 (μM) was determined as a concentration of the test compound required to inhibit the kinase activity by 50% relatively to the control solution, and the results are shown in Table 2.

[1] = test system: human colon carcinoma cell line, HCT116; assay: Cancer cell proliferation, SRB assay; assay type: cell-based; settings: HCT116, 48 hours, concentration inhibiting cancer cell proliferation by 50%
Experimental: (§1) In order to examine the suppressive effect of the inventive aminopyrimidine derivatives on the proliferation of cancer cells through inhibiting the protein kinase activity, a test was performed as follows by employing human colon carcinoma cell line, HCT116 (Korean Cell Line Bank, KCLB10247) and human fetal cell line, MRC-5 (Korean Cell Line Bank, KCLB10171).
(§2) HCT116 and MRC-5 cells were plated into the wells of a 96-well plate containing DMEM (Dulbecco's Modified Eagle Medium) medium at a concentration ranging from 1×10^3 to 3×10^3 cells/well, and cultured under conditions of 5% CO2 and 37° C. for 24 hours. Then, the test compounds of Examples 85 to 88, 97 to 99, 105 to 110 and 115 to 118, and a comparative compound, N-(4-(4-(5-methyl-1H-pyrrole-3-yl-amino)-6-(4-methylpiperazin-1-yl)-1,3,5-triazin-2-ylthio) cyclopropane carboxyamide were added thereto in an amount of 0.2, 1, 5, 25 and 100 μM, respectively. The control was not treated with any compound. The cells were cultured for 48 hours.
(§3) After removing the medium from each wells, the cells were washed about 3 times with phosphate-buffered saline (PBS, pH 7.4), followed by fixing with 50% TCA (trichloroacetic acid) refrigerant solution in an amount of 50 μl/well at 4° C. for 1 hour. The fixed cells were washed 5 times with distilled water and dried in the air, and stained with 50 μl/well of 1% acetic acid containing 0.4% SRB (sulforhodamine B) solution at room temperature for 1 hour. The stained cells were washed 5 times with 1% acetic acid and dried in the air, 150 μl/well of 10 mM Tris-HCl (pH 10.5) were added thereto, and the absorbance of each well was measured at 540 nm. The suppressive value of each compound for cell proliferation was calculated based on the absorbance of the control well, and the results are shown in Table 2. In Table 2, EC50 (μM) was determined as a concentration of the test compound required to inhibit cancer cell proliferation by 50% relative to the control, CC50 (μM) was determined as a concentration of the test compound required to inhibit normal cell proliferation by 50% relative to the control, and the therapeutic index was determined as the value of CC50(μM)/EC50(μM).

[2] = Normal cell proliferation, SRB assay; assay type: cell-based, human; settings: human, CC50(μM)
Experimental: as §1, §2, §3

[3] = test system: human fetal cell line, MRC-5; assay: Normal cell proliferation, SRB assay; assay type: cell-based
Experimental: as §1, §2, §3

Compound | IC50 (Aurora A) [µM] | EC50 ([1]; Homo sapiens, HCT-116, 48 h) [µM] | EC50 [1] [µM] | CC50 at 48 h [2] [µM] | CC50 [3] [µM] | CC50 ([3]; human, 48 h) [µM] | CC50 ([3]; MRC-5, 48 hours, concentration inhibiting normal cell proliferation by 50%, read-out: CC50) [µM]
CCN(CC)CCOc1cc(Nc2nccc(C(=O)NC3CC4CCC3(C)C4(C)C)n2)ccc1OC (stereo not drawn) [Compound 106, 2-(3-(2-(diethylamino)ethoxy)-4-methoxyphenylamino)-N-(1,7,7-trimethylbicyclo[2.2.1]hep-tan-2-yl)pyrimidine-4-carboxyamide] | 0.011 | – | 0.9 | – | 33 | – | –
COc1ccc(Nc2nccc(C(=O)NC3CC4CCC3(C)C4(C)C)n2)cc1OCCN1CCOCC1 (stereo not drawn) [Compound 99, 2-(4-methoxy-3-(2-morpholinoethoxy)phenyl-amino)-N-(1,7,7-trimethylbicyclo[2.2.1]hep-tan-2-yl)pyrimidine-4-carboxyamide] | 0.023 | 2 | – | 52 | – | – | –
CCN1CCN(c2ccc(Nc3nccc(C(=O)NC4CC5CCC4(C)C5(C)C)n3)cc2)CC1 (stereo not drawn) [Compound 105, 2-(4-(4-ethylpiperazin-1-yl)phenylamino)-N-(1,7,7-trimethylbicyclo[2.2.1]hep-tan-2-yl)pyrimidine-4-carboxyamide] | 0.017 | 0.5 | – | > 100 | – | – | –
CC1(C)C2CCC1(C)C(NC(=O)c1ccnc(Nc3ccc(N4CCCCC4)cc3)n1)C2 (stereo not drawn) [Compound 85, 2-(4-(piperidine-1-yl)phenylamino)-N-(1,7,7-trimethylbicyclo[2.2.1]heptane-2-yl)pyrimidine-4-carboxyamide] | 0.033 | 1.6 | – | 38 | – | – | –
CN(C)CCNc1ccc(Nc2nccc(C(=O)NC3CC4CCC3(C)C4(C)C)n2)cc1 (stereo not drawn) [Compound 86] | 0.088 | 1.2 | – | > 100 | – | – | –
CC1(C)C2CCC1(C)C(NC(=O)c1ccnc(Nc3ccc(NCCN4CCCC4)cc3)n1)C2 (stereo not drawn) [Compound 88, 2-(4-(2-(pyrrolidine-1-yl)ethylamino)phenyl-amino)-N-(1,7,7-trimethylbicyclo[2.2.1]heptane-2-yl)pyrimidine-carboxamide] | 0.01 | 0.8 | – | 24.5 | – | – | –
CC1(C)C2CCC1(C)C(NC(=O)c1ccnc(Nc3cccc(NCCCN4CCOCC4)c3)n1)C2 (stereo not drawn) [Compound 98, 2-(3-(3-morpholinopropylamino)phenylamino)-N-(1,7,7-trimethylbicyclo[2.2.1]hep-tan-2-yl)pyrimidine-4-carboxyamide] | 0.039 | – | 3.2 | – | – | 52.6 | –
COc1ccc(Nc2nccc(C(=O)NC3CC4CCC3(C)C4(C)C)n2)cc1OCCN1CCCC1 (stereo not drawn) [Compound 107, 2-(4-methoxy-3-(2-(pyrrolidin-1-yl)ethoxy)phenylamino)-N-(1,7,7-trimethylbicyclo[2.2.1]hep-tan-2-yl)pyrimidine-4-carboxyamide] | 0.018 | 1.2 | – | 46 | – | – | –
CC1(C)C2CCC1(C)C(NC(=O)c1ccnc(Nc3cccc(NCCCN4CCOCC4)c3)n1)C2 (stereo not drawn) [Compound 97, 2-(3-(3-morpholinopropylamino)phenylamino)-N-(1,7,7-trimethylbicyclo[2.2.1]hep-tan-2-yl)pyrimidine-4-carboxyamide] | 0.05 | 3.1 | – | > 100 | – | – | –
N-(4-(4-(5-methyl-1H-pyrrole-3-yl-amino)-6-(4-methylpiperazin-1-yl)-1,3,5-triazin-2-ylthio) cyclopropane carboxyamide [Comparative compound, reference compound] | 0.019 | – | 3 | – | – | – | 33

More lines, main results first:

IC50 (Aurora A) [µM] | EC50 ([1]; Homo sapiens, HCT-116, 48 h) [µM] | EC50 [1] [µM] | Compound | CC50 at 48 h [2] [µM] | CC50 [3] [µM] | CC50 ([3]; human, 48 h) [µM] | CC50 ([3]; MRC-5, 48 hours, concentration inhibiting normal cell proliferation by 50%, read-out: CC50) [µM]
0.02 | 1.9 | – | CCCN1CCN(c2ccc(Nc3nccc(C(=O)NC4CC5CCC4(C)C5(C)C)n3)cc2)CC1 (stereo not drawn) [Compound 110, 2-(4-(4-propylpiperazin-1-yl)phenylamino)-N-(1,7,7-trimethylbicyclo[2.2.1]hep-tan-2-yl)pyrimidine-4-carboxyamide] | 32 | – | – | –
0.093 | 3.1 | – | CC(C)CN1CCN(c2ccc(Nc3nccc(C(=O)NC4CC5CCC4(C)C5(C)C)n3)cc2)CC1 (stereo not drawn) [Compound 115, 2-(4-(4-isobutylpiperazin-1-yl)phenylamino)-N-(1,7,7-trimethylbicyclo-[2.2.1]heptan-2-yl)pyrimidine-4-carboxyamide] | 100 | – | – | –
0.01 | 1.9 | – | CC1(C)C2CCC1(C)C(NC(=O)c1ccnc(Nc3ccc(N4CCN(CCO)CC4)cc3)n1)C2 (stereo not drawn) [Compound 108, 2-(4-(4-(2-hydroxyethyl)piperazin-1-yl)phenylamino)-N-(1,7,7-trimethylbicyclo[2.2.1]hep-tan-2-yl)pyrimidine-4-carboxyamide] | 56 | – | – | –
0.012 | 1.7 | – | CC1(C)C2CCC1(C)C(NC(=O)c1ccnc(Nc3ccc(N4CCN(CC#N)CC4)cc3)n1)C2 (stereo not drawn) [Compound 116, 2-(4-(4-(cianomethyl)piperazin-1-yl)phenylamino)-N-(1,7,7-trimethylbicyclo [2.2.1]heptan-2-yl)pyrimidine-4-carboxyamide] | 26.6 | – | – | –
0.02 | 2.8 | – | CC(C)N1CCN(c2ccc(Nc3nccc(C(=O)NC4CC5CCC4(C)C5(C)C)n3)cc2)CC1 (stereo not drawn) [Compound 109, 2-(4-(4-isopropylpiperazin-1-yl)phenylamino)-N-(1,7,7-trimethylbicyclo[2.2.1]hep-tan-2-yl)pyrimidine-4-carboxyamide] | 23.5 | – | – | –
0.019 | 2.8 | – | CC1(C)C2CCC1(C)C(NC(=O)c1ccnc(Nc3cccc(NCC#N)c3)n1)C2 (stereo not drawn) [Compound 118, 2-(3-(cianomethylamino)phenylami-no)-N-(1,7,7-trimethylbicyclo-[2.2.1]heptane-2-yl)pyrimidine-4-carboxyamide] | 62.5 | – | – | –
